Laboratory results: US4568689A, “Pharmaceutical preparation for the treatment of hypertensive disease and myocardial infarction” (priority 1983, dated 1986)
Entries after “also recorded” stand apart in the source; their conditions may differ.

Experiments:
[1] = background; cited from earlier work
[2] = system: arterial pressure of rats with spontaneous hypertension; test: hypotensive effect, intraperitoneal, spontaneously hypertensive rats; assay type: in vivo
Protocol: The study of the hypotensive effect was carried out in experiments on spontaneously hypertensive male rats of the Akamoto-Aoki line aged 20-25 weeks. The prior art preparation-nifedipine was used for the purpose of comparison. The measurement of the arterial pressure was effected on the tail vein of the rats by the indirect method. The animals were divided into groups (10 in each) and trained for two weeks with the view to ensure their adaptation to the unit for the measurement of the arterial pressure. The level of the arterial pressure prior to administration of the test preparations was measured three times: two days, one day and directly prior to administration of the test preparations. The preparation was administered in the form of a 2.5% aqueous solution, nifedipine--in the form of a 2.5% suspension in Twin-80 intraperitoneally. […]

[3] = background; cited from earlier work; remark: listed apart in the source
[4] = system: arterial pressure of spontaneously hypertensive rats; test: effect of the oral form on arterial pressure, spontaneously hypertensive rats; assay type: in vivo; conditions: 10 mg/kg
[5] = system: neoepinephrine model of infarction (focal necrosis) of myocardium in rats; test: survival of rats with the neoepinephrine model of infarction; assay type: in vivo, rats of the Wistar line; conditions: 25 mg/kg subcutaneously, 7 days; for Percentage of survival: after 19 days; for Number of survived animals after 19 days: groups initially 12 animals
Protocol: The study of the effect produced by the preparation according to the present invention on survival of animals with a neoepinephrine model of infarction was effected in comparison with the prior art preparations--obzidan and finoptin.
The formation of a neoepinephrine model of infarction (focal necrosis) of myocardium in rats was effected by way of an every-day subcutaneous administration of a 0.1% solution of neoepinephrine in the dose of 3 mg/kg for 7 days to rats of the Wistar line with a mass of 160-200 g. The test preparations were subcutaneously administered to the rats in the form of a 1.25% aqueous solution in the dose of 25 mg/kg 0.5 hour after injection of neoepinephrine also for 7 days.

[6] = system: experimental necrosis of myocardium caused by introduction of adrenaline; test: histological analysis of experimental necrosis of myocardium caused by adrenaline; assay type: in vivo, rats of the Wistar line; conditions: for changes in cardiomyocytes / changes in interstitial tissue / changes in vessels: 25 mg/kg
Protocol: A comparative study of the effects produced by the preparation according to the present invention and finoptin on an experimental necrosis of myocardium caused by introduction of adrenaline.
The experiments were carried out on rats of the Wistar line of gregarious keeping, both sexes, with a mass of 170 to 225 g. Each preparation was studied on a separate group of animals: (group of adrenaline-control, group of finoptin, group of the preparation according to the present invention). 72 rats were used in the experiments altogether. Injuries of myocardium were caused by way of a single-time subcutaneous administration of a 0.1% solution of adrenaline hydrochloride in the dose of 3 mg per kg of the rat's bodyweight. […] The preparation of this invention was administered subcutaneously, finoptin-per os. On the first day of the experiment the preparations were administered 30 minutes after injection of adrenaline hydrochloride. The experiment lasted for 19 days. Slaughters were effected on the 4th, 8th, 12th and 19th day of the experiment. The animals were decapitated. The heart was fixed in a 10% solution of neutral formalin and sealed in paraffin. Serial sections with the thickness of 5-6μ were coloured by Ehrlich hematoxylin-eosin. The state of vessels of myocardium, cardiomyocytes and interstitial tissue were evaluated by histological analysis.

[7] = 1 mg/kg intraperitoneally, 30 minutes
[8] = 1 mg/kg intraperitoneally, 1 hour
[9] = 1 mg/kg intraperitoneally, 2 hours
[10] = 1 mg/kg intraperitoneally, 4 hours
[11] = 1 mg/kg intraperitoneally, 24 hours
[12] = 4th day, grade/number of animals (6)
[13] = 8th day, grade/number of animals (6)
[14] = 12th day, grade/number of animals (6)
[15] = 19th day, grade/number of animals (5)

CC(C)NCC(O)COc1cccc2ccccc12 (stereo not drawn) [inderal]
inotropic effect [1]: negative inotropic effect

COC(=O)C1=C(C)NC(C)=C(C(=O)OC)C1c1ccccc1[N+](=O)[O-] [Nifedipine, reference compound]
Variation of arterial pressure, diastolic [2, 7]: -8 % of the initial | Variation of arterial pressure, systolic [2, 7]: -4 % of the initial | lowering of diastolic pressure [2, 7]: 7.6% | lowering of systolic pressure [2, 7]: 4.3% | Variation of arterial pressure, diastolic [2, 8]: -14 % of the initial | Variation of arterial pressure, systolic [2, 8]: -11 % of the initial | Variation of arterial pressure, diastolic [2, 9]: -21 % of the initial | Variation of arterial pressure, systolic [2, 9]: -8 % of the initial | Variation of arterial pressure, diastolic [2, 10]: -31 % of the initial | Variation of arterial pressure, systolic [2, 10]: -11 % of the initial | Variation of arterial pressure, diastolic [2, 11]: 0 % of the initial | Variation of arterial pressure, systolic [2, 11]: 0 % of the initial | effect upon expiration of 8 hours ([2]; 8 hours): substantially discontinued | duration of effect [3]: ≤ 8 h | Variation of arterial pressure, diastolic ([4]; 30 minutes): -14 % of the initial | Variation of arterial pressure, systolic ([4]; 30 minutes): -10 % of the initial | Variation of arterial pressure, diastolic ([4]; 1 hour): -18 % of the initial | Variation of arterial pressure, systolic ([4]; 1 hour): -14 % of the initial | Variation of arterial pressure, diastolic ([4]; 2 hours): -16 % of the initial | Variation of arterial pressure, systolic ([4]; 2 hours): -10 % of the initial | Variation of arterial pressure, diastolic ([4]; 4 hours): -20 % of the initial | Variation of arterial pressure, systolic ([4]; 4 hours): -18 % of the initial | Variation of arterial pressure, diastolic ([4]; 24 hours): 0 % of the initial | Variation of arterial pressure, systolic ([4]; 24 hours): 0 % of the initial

COc1ccc(CCN(C)CCCC(C#N)(c2ccc(OC)c(OC)c2)C(C)C)cc1OC (stereo not drawn) [Finoptin, reference compound]
Percentage of survival [5]: 50% | Number of survived animals after 19 days [5]: 6 | changes in cardiomyocytes ([6]; 4th day): Necrosis and eosinophilia, as well as contracture alterations of muscular cells are observed in a half of the studied animals | changes in interstitial tissue ([6]; 4th day): edema is decreased, in a half of the animals a diffusive round-cell infiltration is observed, the formation of granulomae is similar to that of the animals of the control group | changes in vessels ([6]; 4th day): injuries of the vascular system are less clearly pronounced as compared to adrenaline; non-uniform distribution of endothelium and infiltration of adventita of arteries with lymphoid cells are insignificant | necrobiotic regions in the wall [6, 12]: 0/6 | necrosis of more than 5 cells [6, 12]: 0/6 | wall necrosis (vessels) [6, 12]: 0/6 | changes in cardiomyocytes ([6]; 8th day): granular-lumpy decomposition, eosinophilia and contructure type pathology are more pronounced than in the group of animals administered with the preparation according to the present invention, but less pronounced as compared to the control group (adrenaline) | changes in interstitial tissue ([6]; 8th day): a more intensive growth of the scarring tissue is observed as compared to the group of animals administered with the preparation according to the present invention and an insignificant decrease as compared to the control group (adrenaline) | diffusive round-cell infiltration [6, 13]: 0/6 | edema (interstitial tissue) [6, 13]: 0/6 | necrobiotic regions in the wall [6, 13]: 0/6 | necrosis of more than 5 cells [6, 13]: 0/6 | nuclei (pyknosis) [6, 13]: 0/6 | plethora of the vessels [6, 13]: 0/6 | wall necrosis (vessels) [6, 13]: 0/6 | changes in cardiomyocytes ([6]; 12th day): Eosinophilia is retained and the contructure type changes are more clearly pronounced than in the group administered with the preparation according to the present invention | changes in interstitial tissue ([6]; 12th day): an intensive formation of the scarring tissue occurs more noticeably than in the group of animals administered with the preparation according to the present invention | changes in vessels ([6]; 12th day): certain changes are observed on the part of endothelial cells (swelling) | Nuclei (pykhnosis) [6, 14]: 0/6 | diffusive round-cell infiltration [6, 14]: 0/6 | edema (interstitial tissue) [6, 14]: 0/6 | infiltration of the adventitia with lymphoid cells [6, 14]: 0/5 | necrobiotic regions with changes in the vessel wall [6, 14]: 0/6 | necrosis of more than 5 cells [6, 14]: 0/6 | plethora of the vessels [6, 14]: 0/6 | wall necrosis (vessels) [6, 14]: 0/6 | changes in cardiomyocytes ([6]; 19th day): By the 19th day these changes are getting less noticeable; also recorded: In half of the animals a moderately pronounced granular-lumpy decomposition is retained along with eosinophilia, cell necroses and contructure type changes | changes in vessels ([6]; 19th day): no changes are detected on the part of the coronary vessels | infiltration of the adventitia with lymphoid cells [6, 15]: 0/5 | necrobiotic regions with changes in the vessel wall [6, 15]: 0/5 | necrosis of more than 5 cells [6, 15]: 0/5 | nuclei (pyknosis) [6, 15]: 0/5 | plethora of the vessels [6, 15]: 0/5

C=CCOc1ccccc1OCC(O)CNC(C)C (stereo not drawn) [oxyprenolol]
inotropic effect [1]: negative inotropic effect

CC(C)NCC(O)COc1cccc2ccccc12 (stereo not drawn) [Obzidan]
Percentage of survival [5]: 50% | Number of survived animals after 19 days [5]: 6
